Results taken from US20260068882A1, “ARTHROPOD CONTROLLING COMPOSITION” (Firmenich SA, priority 2019, published 2026).
Like-named read-outs stand apart in the source and are kept apart here.

Columns and labels:
Aedes aegypti = assay: In vitro Warm Body assay, mosquitoes landing on treated warm body; format: in vivo
Summary of the method: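 Adapted Warm Body assay with host-seeking, non-blood-fed, sugar-fed A. aegypti Rockefeller females aged 5–10 days (10–12 days in one set); cages held 30 (or 25) females at 150 lux. Landings were counted automatically. Doses in ethanol were 0.0016%, 0.04% and 1% in triplicate, or a single replicate across 0.0016–1%.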

Ixodes ricinus = assay: In vitro Warm Plate Assay for ticks; format: in vivo; details: for pest or weed control at 0.0016 % / pest or weed control at 0.0053 % / pest or weed control at 0.008 % / pest or weed control at 0.0119 % / pest or weed control at 0.0178 % / pest or weed control at 0.0267 % / pest or weed control at 0.04 % / pest or weed control at 0.0598 % / pest or weed control at 0.089 % / pest or weed control at 0.2 % / pest or weed control at 0.447 % / pest or weed control at 1 %: Ixodes ricinus, read-out: percentage of ticks affected on the Warm Plate
Summary of the method: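 Repellency against last-stage Ixodes ricinus nymphs in an in vitro warm plate assay, compounds diluted in ethanol at 0.4 and 10 mg/mL, 0.0016% to 1%, or 20% (w/w). Ticks walking down or falling from the treated plate scored as affected, walking up as unaffected; groups of 12 ticks, n=2-5.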

[1] = 0.0016% in ethanol (Table 7, one replicate)
[2] = 0.008% in ethanol (Table 7, one replicate)
[3] = 0.04% in ethanol (Table 7, one replicate)
[4] = 0.2% in ethanol (Table 7, one replicate)
[5] = 1% in ethanol (Table 7, one replicate)

c1ccc2c(c1)CC1COCOC21 (stereo not shown) [ingredient #3, 4,4A,5,9B-tetrahydro-indeno[1,2-D]-1,3-dioxin]
reduction of landing (Aedes aegypti; 0.0016% (Table 7)): 5%
number of mosquitoes landed on the Warm Body (Aedes aegypti; 0.0016% in ethanol (Table 6)): 76
number of mosquitoes landed on the Warm Body (Aedes aegypti; [1]): 76
number of mosquitoes landed on the Warm Body (Aedes aegypti; [2]): 61
number of mosquitoes landed on the Warm Body (Aedes aegypti; 0.0119% in ethanol (Table 7, one replicate)): 42
number of mosquitoes landed on the Warm Body (Aedes aegypti; 0.04% in ethanol (Table 6)): 6
number of mosquitoes landed on the Warm Body (Aedes aegypti; [3]): 6
number of mosquitoes landed on the Warm Body (Aedes aegypti; 0.0598% in ethanol (Table 7, one replicate)): 4
number of mosquitoes landed on the Warm Body (Aedes aegypti; [4]): 0
number of mosquitoes landed on the Warm Body (Aedes aegypti; 0.447% in ethanol (Table 7, one replicate)): 2
number of mosquitoes landed on the Warm Body (Aedes aegypti; 1% in ethanol (Table 6)): 2
number of mosquitoes landed on the Warm Body (Aedes aegypti; [5]): 2
percentage of ticks being affected (Ixodes ricinus; 0.00032% (Table 9)): 0%
percentage of ticks being affected (Ixodes ricinus; 0.00071% (Table 9)): 8%
percentage of ticks being affected (Ixodes ricinus; 0.0016% (Table 9)): 0%
percentage of ticks being affected (Ixodes ricinus; 0.00357% (Table 9)): 0%
percentage of ticks being affected (Ixodes ricinus; 0.0053% (Table 9)): 0%
percentage of ticks being affected (Ixodes ricinus; 0.008% (Table 9)): 0%
percentage of ticks being affected (Ixodes ricinus; 0.0119% (Table 9)): 0%
percentage of ticks being affected (Ixodes ricinus; 0.0178% (Table 9)): 0%
percentage of ticks being affected (Ixodes ricinus; 0.0267% (Table 9)): 0%
percentage of ticks being affected (Ixodes ricinus; 0.04% (Table 9)): 13%
percentage of ticks being affected (Ixodes ricinus; 0.0598% (Table 9)): 6%
percentage of ticks being affected (Ixodes ricinus; 0.089% (Table 9)): 0%
percentage of ticks being affected (Ixodes ricinus; 0.2% (Table 9)): 24%
percentage of ticks being affected (Ixodes ricinus; 0.447% (Table 9)): 67%
percentage of ticks being affected (Ixodes ricinus; 1% (Table 9)): 92%
percentage of ticks affected overtime (Ixodes ricinus; 20% (w/w) in ethanol, 0.25 h post-application): 100%
percentage of ticks affected overtime (Ixodes ricinus; 20% (w/w) in ethanol, 0.5 h post-application): 92%
percentage of ticks affected overtime (Ixodes ricinus; 20% (w/w) in ethanol, 1 h post-application): 8%
percentage of ticks affected overtime (Ixodes ricinus; 20% (w/w) in ethanol, 2 h post-application): 17%
percentage of ticks affected overtime (Ixodes ricinus; 20% (w/w) in ethanol, 4 h post-application): 15%
percentage of ticks affected overtime (Ixodes ricinus; 20% (w/w) in ethanol, 6 h post-application): 33%
ticks' repellency overtime (in words) (Ixodes ricinus; 20% (w/w) in ethanol, Table 14): very effective at the first time points
pest or weed control at 0.0016 % (Ixodes ricinus; 0.0016% in ethanol (Table 12)): 0%
pest or weed control at 0.0053 % (Ixodes ricinus; 0.0053% in ethanol (Table 12)): 0%
pest or weed control at 0.008 % (Ixodes ricinus; 0.008% in ethanol (Table 12)): 0%
pest or weed control at 0.0119 % (Ixodes ricinus; 0.0119% in ethanol (Table 12)): 0%
pest or weed control at 0.0178 % (Ixodes ricinus; 0.0178% in ethanol (Table 12)): 0%
pest or weed control at 0.0267 % (Ixodes ricinus; 0.0267% in ethanol (Table 12)): 0%
pest or weed control at 0.04 % (Ixodes ricinus; 0.04% in ethanol (Table 12)): 13%
pest or weed control at 0.0598 % (Ixodes ricinus; 0.0598% in ethanol (Table 12)): 6%
pest or weed control at 0.089 % (Ixodes ricinus; 0.089% in ethanol (Table 12)): 0%
pest or weed control at 0.2 % (Ixodes ricinus; 0.2% in ethanol (Table 12)): 24%
pest or weed control at 0.447 % (Ixodes ricinus; 0.447% in ethanol (Table 12)): 67%
pest or weed control at 1 % (Ixodes ricinus; 1% in ethanol (Table 12)): 92%
ticks affected (Ixodes ricinus; dose of 0.598%): 6%

CCCCC[C@@H]1C(=O)CC[C@@H]1CC(=O)OC [ingredient #4, (+)-methyl (1R)-cis-3-oxo-2-pentyl-1-cyclopentaneacetate, reference compound]
number of mosquitoes landed on the Warm Body (Aedes aegypti; [1]): 66
number of mosquitoes landed on the Warm Body (Aedes aegypti; [2]): 53
number of mosquitoes landed on the Warm Body (Aedes aegypti; [3]): 16
number of mosquitoes landed on the Warm Body (Aedes aegypti; [4]): 17
number of mosquitoes landed on the Warm Body (Aedes aegypti; [5]): 4
pest or weed control at 0.0016 % (Ixodes ricinus): 15%
pest or weed control at 0.0053 % (Ixodes ricinus): 17%
pest or weed control at 0.008 % (Ixodes ricinus): 8%
pest or weed control at 0.0119 % (Ixodes ricinus): 0%
pest or weed control at 0.0178 % (Ixodes ricinus): 33%
pest or weed control at 0.0267 % (Ixodes ricinus): 36%
pest or weed control at 0.04 % (Ixodes ricinus): 92%
pest or weed control at 0.0598 % (Ixodes ricinus): 100%
pest or weed control at 0.089 % (Ixodes ricinus): 100%
pest or weed control at 0.2 % (Ixodes ricinus): 100%
pest or weed control at 0.447 % (Ixodes ricinus): 92%
pest or weed control at 1 % (Ixodes ricinus): 100%
